In the OPERA property sets (Mansouri et al. 2018):

logP | Compound
2.44 | CS(=O)(=O)Nc1ccc2nn(C3CCCC3)nc2c1
2.48 | Nc1ccc(S(=O)(=O)Nc2ccc3nn(C4CCCC4)nc3c2)cc1
3.4 | CC(C)(C)C(=O)Nc1ccc2nn(C3CCCC3)nc2c1
3.87 | COc1cc(C(=O)Nc2ccc3nn(C4CCCC4)nc3c2)cc(OC)c1OC
3.91 | Cc1ccc(S(=O)(=O)Nc2ccc3nn(C4CCCC4)nc3c2)cc1
5.32 | O=C(Nc1ccc2nn(C3CCCC3)nc2c1)c1ccc(Cl)c(Cl)c1
2.45 | CC(=O)Nc1ccc2nn(C3CCCC3)nc2c1
4.11 | O=C(Nc1ccc2nn(C3CCCC3)nc2c1)c1ccc(Cl)cc1
4.95 | O=C(Nc1ccc2nn(C3CCCC3)nc2c1)c1ccc(C(F)(F)F)cc1
2.78 | O=C(CCl)Nc1ccc2nn(C3CCCC3)nc2c1
4.28 | CC(C)COC(=O)Nc1ccc2nn(C3CCCC3)nc2c1
3.43 | CCOC(=O)Nc1ccc2nn(C3CCCC3)nc2c1
3.4 | O=C(Nc1ccc2nn(C3CCCC3)nc2c1)C(Cl)Cl
4.12 | O=C(Nc1ccc2nn(C3CCCC3)nc2c1)C(Cl)(Cl)Cl
3.85 | O=C(Nc1ccc2nn(C3CCCC3)nc2c1)c1ccccc1
3.75 | O=C(Nc1ccc2nn(C3CCCC3)nc2c1)c1ccc([N+](=O)[O-])cc1
3.82 | O=[N+]([O-])c1ccc(S(=O)(=O)Nc2ccc3nn(C4CCCC4)nc3c2)cc1
